# Measured values: US20040006070A1, “Intraspinal continuous infusion of midazolam hydrochloride for the treatment of pain” (priority 2002, published 2004)
# Values joined by “and” are separate entries in the source; they are usually repeats but may differ in a detail not shown here. Identical values can stand only once. “Also recorded” adds a separate entry of the source. Counter-ions that a name gives are not always drawn. Like-named read-outs stand apart in the source and are kept apart here.
# Tests used:
# [1] = rabbit, intrathecal bolus 0.1% midazolam or preservative-free midazolam in 0.3 ml, one or five days; cited from earlier work
# [2] = Toxicity testing of midazolam in the pig model, closed label (swine data); type: in vivo
# Procedure: Another closed label study was performed in pigs. This study was performed in response to implications of possible species-related toxicity reported by researchers in Turkey and France (Malinovsky et al., 1991; Svensson et al., 1995; Erdine et al, 1999). […] Rats were administered single or multiple bolus doses for 20 days. Rabbits were administered bolus injections of 0.1% midazolam (pH 3.3) in 0.3 ml or preservative-free midazolam (pH 3.5) in 0.3 ml for one day or five consecutive days. To further assess the safety of spinally administered midazolam by continuous infusion in a second species, three pigs were instrumented with Medtronic SynchroMed® intrathecal infusion systems. Pigs were administered 15 mg/day (N=2), or saline control (N=1).
# [3] = tested on: neuropathic pain model in the sheep; test: Neuropathic pain model in sheep, mechanical stimulus device; type: in vivo; conditions: for Mechanical Stimulus device: sheep Rowdy #819
# From the text: The neuropathic pain model in the sheep is created by placing four tight ligatures around the median, radial, or ulnar nerve (or a combination thereof) with 0-chromic gut suture. This method produces a chronic painful peripheral mononeuropathy which may be related to those conditions seen in humans with causalgia and reflex sympathetic dystrophy. To date, the onset of neuropathic pain has occurred 1 to 9 days postoperatively, as evidenced by the display of painful behavior such as hyperalgesia, not bearing weight or holding the operated leg off the ground. The duration of the painful behavior lasted 16 to 62 days. […] It has been difficult to identify a segment of the median nerve that is consistently appropriate to achieve the neuropathic pain behavior. The inventors are continuing to test different segments of the median nerve and other mixed sensory/motor nerves to consistently produce this behavior. Of the five animals that developed neuropathic pain, three were treated with intrathecal morphine or midazolam as single agents.
# In the sheep with neuropathic pain treated by midazolam alone, intrathecal administration of midazolam was initiated at 3 to 5 mg/day and the dose was escalated to up to 15 mg/day. […] This analgesia was documented using a mechanical stimulus device and/or behavior monitoring. The mechanical stimulus device measures pressure applied to a blunt pin against the foreleg. The pressure at which the animal lifts its leg in response to the painful stimulus is documented. In the sheep monitored by this device, administration of intrathecal midazolam allowed endurance of up to 18 Newtons of pressure (cut off to prevent tissue damage was set at 19.99 N) compared to the baseline (pretreatment) pressure endured of 9.59 N.
# A mechanical stimulus device as described in Example 6, and/or behavior monitoring as described in Example 5 is used to test analgesic effect in the neuropathic pain model. To compare the effects of midazolam using the mechanical stimulus device, the data were accumulated over the testing period, and all response latencies were expressed as percentage of the maximum possible effect (MPE) where: [formula]
# This test will be conducted prior to initiation of midazolam infusion and again on days 1, 3, 7, 15, 22, 29, 36, 43 during infusion. The mechanical stimulus device has been developed and validated (Nolan et al. 1987; Kyles et al., 1995) for pain testing in the sheep model.
# Acute Pain Sheep Model = test: Mechanical stimulus device nociceptive testing (% MPE), acute pain sheep model; type: in vivo
# Procedure: Open-label (known dose) trial: A trial with known midazolam doses was performed in the first 7 sheep. Animals were administered 3 mg/day (N=1), 5 mg/day (N=1), 10 mg/day (N=1), and 15 mg/day (N=4) for 43 days. These doses were chosen based upon previous intrathecal bolus dose studies in rats and humans, with conversion of from species to species based on cerebral spinal fluid (CSF) production rate and total CSF volume. Analgesic activity was assessed using a mechanical stimulus device which produces a stimulus of acute pain by application of force via a blunt needle applied to the shaved front foreleg of the animal. Force is applied with increasing pressure until the animal lifts its leg in response to the painful stimulus. To evaluate the analgesic effect of midazolam, response latencies were expressed as a percentage of the maximum possible effect, % MPE. The response latency is defined as follows: [formula]
# A mechanical stimulus device was used for the pain stimulus. […] The force applied to the pin was measured by strain gauges that are incorporated into the device on the leg. The output from the strain gauges was recorded on a millivoltmeter in the control box. […] To compare the effects of midazolam, the data were accumulated over the testing period, and all response latencies were expressed as percentage of the maximum possible effect (MPE) where: [formula] […]
# [4] = rat, single or multiple intrathecal bolus doses for 20 days; cited from earlier work
# [5] = CSF, individual pigs, 15 mg, hydrochloride
# [6] = individual pigs, Drug Dose 15 mg, hydrochloride
# [7] = pigs, 15 mg/day continuous intrathecal infusion (N=2)
structure (smiles),measurement,setting,value
"Cc1ncc2n1-c1ccc(Cl)cc1C(c1ccccc1F)=NC2 [Midazolam, midazolam hydrochloride]",neurotoxicity,[1],neurotoxicity
same,Routine Cultures Post Mortum,"[2]; CSF, individual pigs, 15 mg, cell wraps 'No' / 'Growth'",No
same,Glucose Post Mortum,[2]; [5],11 mg/dL and 31 mg/dL
same,Gross Exam Post Mortum,[2]; [5],Colorless; also recorded: cloudy; also recorded: clear
same,RBC Count Post Mortum,[2]; [5],"1,350 /ul and 0 /ul"
same,Total Protein Post Mortum,[2]; [5],73 mg/dL and 39 mg/dL
same,WBC Count Post Mortum,[2]; [5],888 µL⁻¹ and 117 µL⁻¹
same,clinical symptoms,"[2]; individual pigs, Drug Dose 15 mg",none
same,Final Weight,[2]; [6],147 and 170
same,Histopathological Changes,[2]; [6],Most foreign body reaction in all the pigs; also recorded: The least foreign body reaction in all the pigs. The spinal reaction
same,clinical or gross changes at necropsy,[2]; [7],No clinical or gross changes at necropsy were observed
same,"histology, toxicity related to the infusion",[2]; [7],no evidence of toxicity related to the midazolam infusion
same,pressure endured (mechanical stimulus device),"[3]; Sheep #819, cut off 19.99 N, baseline (pretreatment) 9.59 N",up to 18 Newtons
same,analgesia,"[3]; neuropathic pain sheep, midazolam alone, 3 to 5 mg/day escalated up to 15 mg/day intrathecal",significant analgesia
same,Mechanical Stimulus device,[3]; 10 mg,13.7N
same,Mechanical Stimulus device,[3]; 15 mg,7.0N
same,pain relief,"Acute Pain Sheep Model; closed-label study, 5 or 15 mg/day intrathecal",significant pain relief
same,pain relief,"Acute Pain Sheep Model; open-label trial, all treated animals, 5-15 mg/day intrathecal for 43 days",significant pain relief
same,neurotoxicity,[4],neurotoxicity
